Activity calls are given as the source filed them. No cut-off for these calls is given here.
How the values were obtained:
Mus musculus [1] = assay: Inhibition of aspermatogenic activity of bovine […] assessed as diameter of somniferous tubule at 1:100 ratio of BS-Rnase+compound after 10 days administered once into left testes; format: functional, organism-based
Mus musculus [2] = assay: Inhibition of aspermatogenic activity of bovine seminal ribonuclease in mouse ICR assessed as diameter of somniferous tubule at 1:100 ratio of BS-Rnase+compound after 10 days administered once into left testes; format: functional, organism-based
Mus musculus [3] = assay: Inhibition of aspermatogenic activity of bovine […] assessed as width of spermatogenic layer at 1:100 ratio of BS-Rnase+compound after 10 days administered once into left testes; format: functional, organism-based
Mus musculus [4] = assay: Inhibition of aspermatogenic activity of bovine seminal ribonuclease in mouse ICR assessed as width of spermatogenic layer at 1:100 ratio of BS-Rnase+compound after 10 days administered once into left testes; format: functional, organism-based
Mus musculus [5] = assay: Inhibition of aspermatogenic activity of bovine seminal ribonuclease in mouse ICR assessed as weight of the testes at 1:100 ratio of BS-Rnase+compound after 10 days administered once into left testes; format: functional, organism-based; conditions: Testis
Mus musculus [6] = assay: Inhibition of aspermatogenic activity of bovine […] assessed as weight of the testes at 1:1 ratio of BS-Rnase+compound after 10 days administered once into left testes; format: functional, organism-based; conditions: Testis
Seminal ribonuclease = target: T1, Seminal ribonuclease (Bos taurus, UniProt P00669); assay: Inhibition of bovine seminal ribonuclease assessed as enzyme activity by spectrophotometric method at pH 6
T1 sequence (P00669 whole entry): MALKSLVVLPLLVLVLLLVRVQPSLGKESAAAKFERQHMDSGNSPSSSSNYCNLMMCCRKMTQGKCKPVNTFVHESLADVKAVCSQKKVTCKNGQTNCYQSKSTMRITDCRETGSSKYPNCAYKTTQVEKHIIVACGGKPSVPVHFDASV

Ribonuclease pancreatic = target: T2, Ribonuclease pancreatic (Bos taurus, UniProt P61823); assay: Inhibition of bovine pancreatic ribonuclease A assessed as enzyme activity by spectrophotometric method pH 6
T2 sequence (P61823 whole entry): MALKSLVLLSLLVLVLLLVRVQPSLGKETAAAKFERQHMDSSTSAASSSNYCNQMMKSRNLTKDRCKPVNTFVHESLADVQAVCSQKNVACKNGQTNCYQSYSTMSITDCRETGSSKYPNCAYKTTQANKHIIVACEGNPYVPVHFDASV

Mus musculus [7] = assay: Inhibition of aspermatogenic activity of bovine seminal ribonuclease in mouse ICR assessed as diameter of somniferous tubule at 1:1 ratio of BS-Rnase+compound after 10 days administered once into left testes; format: functional, organism-based
Mus musculus [8] = assay: Inhibition of aspermatogenic activity of bovine seminal ribonuclease in mouse ICR assessed as width of spermatogenic layer at 1:1 ratio of BS-Rnase+compound after 10 days administered once into left testes; format: functional, organism-based
Mus musculus [9] = assay: Inhibition of aspermatogenic activity of bovine seminal ribonuclease in mouse ICR assessed as weight of the testes at 1:1 ratio of BS-Rnase+compound after 10 days administered once into left testes; format: functional, organism-based; conditions: Testis

| SMILES | Activity (Mus musculus [2]) | Activity (Mus musculus [4]) | Activity (Mus musculus [5]) | Ki (Ribonuclease pancreatic) [µM] | also measured |
| --- | --- | --- | --- | --- | --- |
| O=c1ccn([C@@H]2O[C@H](CO)[C@@H](OP(=O)(O)O)[C@H]2O)c(=O)[nH]1 |  |  |  | 78.5 |  |
| O=c1ccn([C@@H]2O[C@H](CO)[C@@H](O)[C@H]2OP(=O)(O)O)c(=O)[nH]1 |  |  |  | 11.6 |  |

Now from value to molecule, other results behind:

| Activity (Mus musculus [2]) | Activity (Mus musculus [4]) | Activity (Mus musculus [5]) | Ki (Ribonuclease pancreatic) [µM] | SMILES | also measured |
| --- | --- | --- | --- | --- | --- |
| inactive | inactive | inactive | 844 | Nc1ccn([C@@H]2O[C@H](COP(=O)(O)O)[C@@H](O)[C@H]2O)c(=O)n1 | Activity (Mus musculus [1]): Active; Activity (Mus musculus [3]): Active; Activity (Mus musculus [6]): Active; Ki (Seminal ribonuclease): 1.56 mM |
|  |  |  | 647 | O=c1ccn([C@@H]2O[C@H](COP(=O)(O)OP(=O)(O)O)[C@@H](O)[C@H]2O)c(=O)[nH]1 [URIDINE_DIPHOSPHATE] |  |
| inactive | inactive | inactive | 20.1 | Nc1ccn([C@@H]2O[C@H](CO)[C@@H](OP(=O)(O)O)[C@H]2O)c(=O)n1 | Activity (Mus musculus [7]): Active; Activity (Mus musculus [8]): Active; Activity (Mus musculus [9]): Active |

Source: ChEMBL document CHEMBL1153815, “Mapping the ribonucleolytic active site of bovine seminal ribonuclease. The binding of pyrimidinyl phosphonucleotide inhibitors” (Eur J Med Chem, 2009)
